# Assay results reported in ChEMBL document CHEMBL1151757, “Synthesis, radiosynthesis, and biological evaluation of fluorine-18-labeled 2beta-carbo(fluoroalkoxy)-3beta-(3'-((Z)-2-haloethenyl)phenyl)nortropanes: candidate radioligands for in vivo imaging of the serotonin transporter with positron emission tomography” (J Med Chem, 2008).
# Legend:
# [1] = Ratio of drug uptake in thalamus to cerebellum in anesthetized cynomolgus monkey after 195 mins postinjection; assay type: ADME, organism-based, Macaca fascicularis; conditions: in vivo, 3.25 h
# [2] = system: Caudate; assay: Drug uptake in anesthetized cynomolgus monkey brain caudate after 75 mins postinjection; assay type: ADME, organism-based, Macaca fascicularis, Caudate nucleus; conditions: in vivo, 1.25 h
# [3] = Ratio of drug uptake in pons to cerebellum in anesthetized cynomolgus monkey after 185 mins postinjection; assay type: ADME, organism-based, Macaca fascicularis; conditions: in vivo
# [4] = system: Thalamus; assay: Drug uptake in anesthetized cynomolgus monkey brain thalamus after 125 mins postinjection; assay type: ADME, organism-based, Macaca fascicularis; set-up: unit not given here; conditions: in vivo
# [5] = Ratio of drug uptake in pons to cerebellum in anesthetized cynomolgus monkey after 6.5 mins postinjection; assay type: ADME, organism-based, Macaca fascicularis; conditions: in vivo
# [6] = Ratio of drug uptake in medulla to cerebellum in anesthetized cynomolgus monkey after 165 mins postinjection; assay type: ADME, organism-based, Macaca fascicularis; conditions: in vivo, 2.75 h
# [7] = system: Medulla; assay: Drug uptake in anesthetized cynomolgus monkey brain medulla after 85 mins postinjection; assay type: ADME, organism-based, Macaca fascicularis; conditions: in vivo
# [8] = system: Caudate; assay: Drug uptake in anesthetized cynomolgus monkey brain caudate after 135 mins postinjection; assay type: ADME, organism-based, Macaca fascicularis, Caudate nucleus; conditions: in vivo, 2.25 h
# [9] = system: Midbrain; assay: Drug uptake in anesthetized cynomolgus monkey brain midbrain after 35 mins postinjection; assay type: ADME, organism-based, Macaca fascicularis; set-up: unit not given here; conditions: in vivo
# [10] = system: Putamen; assay: Drug uptake in anesthetized cynomolgus monkey brain putamen after 18.5 mins postinjection; assay type: ADME, organism-based, Macaca fascicularis; set-up: unit not given here; conditions: in vivo
# [11] = Ratio of drug uptake in frontal lobe to cerebellum in anesthetized cynomolgus monkey after 75 mins postinjection; assay type: ADME, organism-based, Macaca fascicularis; conditions: in vivo, 1.25 h
# [12] = Drug uptake in awake rhesus monkey brain medulla after 7.5 mins postinjection; assay type: ADME, organism-based, Macaca mulatta; conditions: in vivo, 0.125 h
# [13] = Drug uptake in anesthetized cynomolgus monkey brain cerebellum after 22.5 mins postinjection; assay type: ADME, organism-based, Macaca fascicularis; conditions: in vivo, 0.375 h
# [14] = system: Midbrain; assay: Drug uptake in anesthetized cynomolgus monkey brain midbrain after 45 mins postinjection; assay type: ADME, organism-based, Macaca fascicularis; set-up: unit not given here; conditions: in vivo, 0.75 h
# [15] = system: Putamen; assay: Drug uptake in anesthetized cynomolgus monkey brain putamen after 0.5 mins postinjection; assay type: ADME, organism-based, Macaca fascicularis; conditions: in vivo
# [16] = system: Pons; assay: Drug uptake in anesthetized cynomolgus monkey brain pons after 125 mins postinjection; assay type: ADME, organism-based, Macaca fascicularis; conditions: in vivo
# [17] = Drug uptake in awake rhesus monkey brain medulla after 85 mins postinjection; assay type: ADME, organism-based, Macaca mulatta; conditions: in vivo
# [18] = Ratio of drug uptake in pons to cerebellum in anesthetized cynomolgus monkey after 215 mins postinjection; assay type: ADME, organism-based, Macaca fascicularis; conditions: in vivo
# [19] = Ratio of drug uptake in occipital lobe to cerebellum in anesthetized cynomolgus monkey after 4.5 mins postinjection; assay type: ADME, organism-based, Macaca fascicularis; conditions: in vivo, 0.075 h
# [20] = system: Thalamus; assay: Drug uptake in anesthetized cynomolgus monkey brain thalamus after 12.5 mins postinjection; assay type: ADME, organism-based, Macaca fascicularis; set-up: unit not given here; conditions: in vivo
# [21] = Ratio of drug uptake in frontal lobe to cerebellum in awake rhesus monkey after 35 mins postinjection; assay type: ADME, organism-based, Macaca mulatta; conditions: in vivo
# [22] = system: Pons; assay: Drug uptake in anesthetized cynomolgus monkey brain pons after 35 mins postinjection; assay type: ADME, organism-based, Macaca fascicularis; conditions: in vivo
# [23] = Drug uptake in awake rhesus monkey brain caudate after 4.5 mins postinjection; assay type: ADME, organism-based, Macaca mulatta, Caudate nucleus; conditions: in vivo, 0.075 h
# [24] = system: Putamen; assay: Drug uptake in anesthetized cynomolgus monkey brain putamen after 27.5 mins postinjection; assay type: ADME, organism-based, Macaca fascicularis; set-up: unit not given here; conditions: in vivo
# [25] = Ratio of drug uptake in thalamus to cerebellum in anesthetized cynomolgus monkey after 9.5 mins postinjection; assay type: ADME, organism-based, Macaca fascicularis; conditions: in vivo
# [26] = system: Thalamus; assay: Drug uptake in anesthetized cynomolgus monkey brain thalamus after 0.5 mins postinjection; assay type: ADME, organism-based, Macaca fascicularis; conditions: in vivo
# [27] = system: Pons; assay: Drug uptake in anesthetized cynomolgus monkey brain pons after 45 mins postinjection; assay type: ADME, organism-based, Macaca fascicularis; conditions: in vivo, 0.75 h
# [28] = system: Pons; assay: Drug uptake in anesthetized cynomolgus monkey brain pons after 135 mins postinjection; assay type: ADME, organism-based, Macaca fascicularis; conditions: in vivo, 2.25 h
# [29] = Ratio of drug uptake in frontal lobe to cerebellum in anesthetized cynomolgus monkey after 95 mins postinjection; assay type: ADME, organism-based, Macaca fascicularis; conditions: in vivo
# [30] = system: Medulla; assay: Drug uptake in anesthetized cynomolgus monkey brain medulla after 65 mins postinjection; assay type: ADME, organism-based, Macaca fascicularis; conditions: in vivo
# [31] = Drug uptake in anesthetized cynomolgus monkey brain occipital lobe after 65 mins postinjection; assay type: ADME, organism-based, Macaca fascicularis; conditions: in vivo
# [32] = system: Medulla; assay: Drug uptake in anesthetized cynomolgus monkey brain medulla after 2.5 mins postinjection; assay type: ADME, organism-based, Macaca fascicularis; conditions: in vivo
# [33] = system: Putamen; assay: Drug uptake in anesthetized cynomolgus monkey brain putamen after 225 mins postinjection; assay type: ADME, organism-based, Macaca fascicularis; conditions: in vivo, 3.75 h
# [34] = Drug uptake in awake rhesus monkey brain cerebellum after 10.5 mins postinjection; assay type: ADME, organism-based, Macaca mulatta; conditions: in vivo, 0.175 h
# [35] = Ratio of drug uptake in medulla to cerebellum in anesthetized cynomolgus monkey after 155 mins postinjection; assay type: ADME, organism-based, Macaca fascicularis; conditions: in vivo
# [36] = system: Putamen; assay: Drug uptake in anesthetized cynomolgus monkey brain putamen after 75 mins postinjection; assay type: ADME, organism-based, Macaca fascicularis; set-up: unit not given here; conditions: in vivo, 1.25 h
# [37] = system: Pons; assay: Drug uptake in anesthetized cynomolgus monkey brain pons after 205 mins postinjection; assay type: ADME, organism-based, Macaca fascicularis; conditions: in vivo
# [38] = Drug uptake in awake rhesus monkey brain pons after 65 mins postinjection; assay type: ADME, organism-based, Macaca mulatta; conditions: in vivo
# [39] = Drug uptake in awake rhesus monkey brain caudate after 25 mins postinjection; assay type: ADME, organism-based, Macaca mulatta, Caudate nucleus; conditions: in vivo
# [40] = Drug uptake in awake rhesus monkey brain medulla after 115 mins postinjection; assay type: ADME, organism-based, Macaca mulatta; conditions: in vivo
# [41] = Drug uptake in anesthetized cynomolgus monkey brain cerebellum after 235 mins postinjection; assay type: ADME, organism-based, Macaca fascicularis; conditions: in vivo
# [42] = Ratio of drug uptake in midbrain to cerebellum in anesthetized cynomolgus monkey after 18.5 mins postinjection; assay type: ADME, organism-based, Macaca fascicularis; conditions: in vivo
# [43] = system: Pons; assay: Drug uptake in anesthetized cynomolgus monkey brain pons after 182.5 mins postinjection; assay type: ADME, organism-based, Macaca fascicularis; conditions: in vivo
# [44] = Ratio of drug uptake in frontal lobe to cerebellum in anesthetized cynomolgus monkey after 145 mins postinjection; assay type: ADME, organism-based, Macaca fascicularis; conditions: in vivo
# [45] = system: Putamen; assay: Drug uptake in anesthetized cynomolgus monkey brain putamen after 182.5 mins postinjection; assay type: ADME, organism-based, Macaca fascicularis; conditions: in vivo
# [46] = system: Medulla; assay: Drug uptake in anesthetized cynomolgus monkey brain medulla after 187.5 mins postinjection; assay type: ADME, organism-based, Macaca fascicularis; conditions: in vivo, 3.125 h
# [47] = Ratio of drug uptake in medulla to cerebellum in anesthetized cynomolgus monkey after 0.5 mins postinjection; assay type: ADME, organism-based, Macaca fascicularis; conditions: in vivo
# [48] = Drug uptake in anesthetized cynomolgus monkey brain frontal lobe after 105 mins postinjection; assay type: ADME, organism-based, Macaca fascicularis; conditions: in vivo, 1.75 h
# [49] = Ratio of drug uptake in putamen to cerebellum in anesthetized cynomolgus monkey after 65 mins postinjection; assay type: ADME, organism-based, Macaca fascicularis; conditions: in vivo
# [50] = system: Medulla; assay: Drug uptake in anesthetized cynomolgus monkey brain medulla after 207.5 mins postinjection; assay type: ADME, organism-based, Macaca fascicularis; conditions: in vivo
# [51] = Drug uptake in anesthetized cynomolgus monkey brain frontal lobe after 197.5 mins postinjection; assay type: ADME, organism-based, Macaca fascicularis; conditions: in vivo
# [52] = Drug uptake in anesthetized cynomolgus monkey brain cerebellum after 182.5 mins postinjection; assay type: ADME, organism-based, Macaca fascicularis; conditions: in vivo
# [53] = Drug uptake in anesthetized cynomolgus monkey brain cerebellum after 4.5 mins postinjection; assay type: ADME, organism-based, Macaca fascicularis; conditions: in vivo, 0.075 h
# [54] = Drug uptake in anesthetized cynomolgus monkey brain occipital lobe after 145 mins postinjection; assay type: ADME, organism-based, Macaca fascicularis; conditions: in vivo
# [55] = system: Pons; assay: Drug uptake in anesthetized cynomolgus monkey brain pons after 202.5 mins postinjection; assay type: ADME, organism-based, Macaca fascicularis; conditions: in vivo, 3.375 h
# [56] = Ratio of drug uptake in thalamus to cerebellum in anesthetized cynomolgus monkey after 27.5 mins postinjection; assay type: ADME, organism-based, Macaca fascicularis; conditions: in vivo
# [57] = system: Medulla; assay: Drug uptake in anesthetized cynomolgus monkey brain medulla after 182.5 mins postinjection; assay type: ADME, organism-based, Macaca fascicularis; conditions: in vivo
# [58] = Drug uptake in anesthetized cynomolgus monkey brain cerebellum after 207.5 mins postinjection; assay type: ADME, organism-based, Macaca fascicularis; conditions: in vivo
# [59] = Drug uptake in anesthetized cynomolgus monkey brain cerebellum after 75 mins postinjection; assay type: ADME, organism-based, Macaca fascicularis; conditions: in vivo, 1.25 h
# [60] = Drug uptake in anesthetized cynomolgus monkey brain occipital lobe after 197.5 mins postinjection; assay type: ADME, organism-based, Macaca fascicularis; conditions: in vivo
# [61] = system: Midbrain; assay: Drug uptake in anesthetized cynomolgus monkey brain midbrain after 187.5 mins postinjection; assay type: ADME, organism-based, Macaca fascicularis; conditions: in vivo, 3.125 h
# [62] = Drug uptake in anesthetized cynomolgus monkey brain frontal lobe after 165 mins postinjection; assay type: ADME, organism-based, Macaca fascicularis; conditions: in vivo, 2.75 h
# [63] = system: Midbrain; assay: Drug uptake in anesthetized cynomolgus monkey brain midbrain after 207.5 mins postinjection; assay type: ADME, organism-based, Macaca fascicularis; conditions: in vivo
# [64] = Drug uptake in anesthetized cynomolgus monkey brain cerebellum after 45 mins postinjection; assay type: ADME, organism-based, Macaca fascicularis; conditions: in vivo, 0.75 h
# [65] = Drug uptake in anesthetized cynomolgus monkey brain occipital lobe after 105 mins postinjection; assay type: ADME, organism-based, Macaca fascicularis; conditions: in vivo, 1.75 h
compound,measurement,setting,value
O=C(OCC[18F])C1C2CCC(CC1c1ccc(/C=C\I)cc1)N2 (configuration not stated),Ratio,[1],2.8
same,Drug uptake,[2],2.98
same,Ratio,[3],2.6
same,Drug uptake,[4],4.04
same,Ratio,[5],0.8
same,Ratio,[6],2.6
same,Drug uptake,[7],3.91
same,Drug uptake,[8],3.1
same,Drug uptake,[9],3.51
same,Drug uptake,[10],2.87
same,Ratio,[11],0.9
same,Drug uptake,[12],1.51
same,Drug uptake,[13],2.63
same,Drug uptake,[14],3.76
same,Drug uptake,[15],0
same,Drug uptake,[16],3.56
same,Drug uptake,[17],2.66
same,Ratio,[18],2.9
same,Ratio,[19],0.8
same,Drug uptake,[20],2.29
same,Ratio,[21],1
same,Drug uptake,[22],2.74
same,Drug uptake,[23],1.17
same,Drug uptake,[24],3.38
same,Ratio,[25],1
same,Drug uptake,[26],0
same,Drug uptake,[27],3.09
same,Drug uptake,[28],3.6
same,Ratio,[29],0.9
same,Drug uptake,[30],3.75
same,Drug uptake,[31],2.38
same,Drug uptake,[32],0.5
same,Drug uptake,[33],3.79
same,Drug uptake,[34],1.66
same,Ratio,[35],2.5
same,Drug uptake,[36],4.28
same,Drug uptake,[37],3.34
same,Drug uptake,[38],2.49
same,Drug uptake,[39],2.75
same,Drug uptake,[40],2.57
O=C(OCCC[18F])C1C2CCC(CC1c1cccc(/C=C\Br)c1)N2 (configuration not stated),Drug uptake,[41],1.87
same,Drug uptake,[2],5.17
same,Ratio,[42],0.9
same,Drug uptake,[4],4.71
same,Drug uptake,[43],3.71
same,Ratio,[6],1.7
same,Drug uptake,[7],5.41
same,Drug uptake,[8],4.43
same,Ratio,[44],1
same,Drug uptake,[9],6.14
same,Drug uptake,[45],4.09
same,Drug uptake,[46],4.04
same,Ratio,[47],2.4
same,Drug uptake,[10],5.83
same,Ratio,[11],0.9
same,Drug uptake,[48],3.19
same,Ratio,[49],1.3
same,Drug uptake,[50],3.58
same,Drug uptake,[13],5.9
same,Drug uptake,[14],6.06
same,Drug uptake,[15],0.01
same,Drug uptake,[16],4.3
same,Ratio,[19],0.7
same,Drug uptake,[51],2.23
same,Drug uptake,[52],2.27
same,Drug uptake,[53],3.51
same,Drug uptake,[20],4.31
same,Drug uptake,[22],5.08
same,Drug uptake,[24],5.95
same,Drug uptake,[54],3.5
same,Drug uptake,[55],3.68
same,Ratio,[56],0.9
same,Ratio,[25],0.7
same,Drug uptake,[57],4.22
same,Drug uptake,[58],1.86
same,Drug uptake,[26],0.01
same,Drug uptake,[27],4.85
same,Drug uptake,[28],4.03
same,Ratio,[29],0.9
same,Drug uptake,[59],4.02
same,Drug uptake,[60],2.91
same,Drug uptake,[30],5.61
same,Drug uptake,[31],4.52
same,Drug uptake,[61],4.65
same,Drug uptake,[32],1.62
same,Drug uptake,[62],2.58
same,Drug uptake,[33],3.51
same,Ratio,[35],1.7
same,Drug uptake,[36],5.63
same,Drug uptake,[63],4.46
same,Drug uptake,[64],5.11
same,Drug uptake,[65],3.91
